Here are results for one compound from ChEMBL document CHEMBL5661965, “CI-1033, a pan-erbB tyrosine kinase inhibitor” (Semin Oncol, 2001).

Holding throughout (type): functional
Experiment [1] has as its system A-431. The experiment is described as follows: Antitumor activity against human A-431 cells xenografted in mouse assessed as reduction in average tumor volume at 1.25 to 40 mg/kg/day, po started on day 14 post-implant, stopped on day 66, and then restarted on day 76 for 2 additional weeks. As to conditions: dose 1.25-40 mg/kg/day, read-out: MED. For orientation: In xenograft studies the graft and the host belong to different species.

Experiment [2] relates to A-431. In words: Antitumor activity against human A-431 cells xenografted in mouse assessed as average tumor volume at 1.25 to 10 mg/kg/day, po started on day 14 post-implant and measured on day 23 (reference value: >1200 mg). As to conditions: dose 1.25-10 mg/kg/day, time 23 day.
Experiment [3] has as its system A-431. The experiment is described as follows: Antitumor activity against human A-431 cells xenografted in mouse assessed as average tumor volume at 20 to 40 mg/kg/day, po started on day 14 post-implant and measured on day 23 (reference value: >1200 mg). Conditions: dose 20-40 mg/kg/day, time 23 day.

Structures are written as SMILES.

For the compound `C=CC(=O)Nc1cc2c(Nc3ccc(F)c(Cl)c3)ncnc2cc1OCCCN1CCOCC1.Cl.Cl` [CANERTINIB DIHYDROCHLORIDE], in the experiment with A-431 [1], the minimal effective dose was found to be 1.25 mg/kg/day. For the same compound, the Activity is recorded as 175 mg in the experiment with A-431 [2] and “<=100 mg” in the experiment with A-431 [3].
